Laboratory results as given in patent publication US6818765B1, “Benzene-sulphonamide derivatives and their uses” (Universite de Liege, priority 1999, dated 2004).
Like-named read-outs stand apart in the source and are kept apart here.

Assays:
[1] = target: T1, thromboxane A2 receptors (TPα) of human platelets (Homo sapiens, UniProt P21731); experiment: Binding test: displacement of [3H]SQ-29.548 from human platelet thromboxane A2 receptors; settings: for inhibition at 1 µM: read-out: Affinity: percent of [3H]SQ-29.548 specifically substituted by the examined compound, compound 10^-6 M; for inhibition at 0.1 µM: read-out: Affinity: percent of [3H]SQ-29.548 specifically substituted by the examined compound, compound 10^-7 M
T1 construct: endogenous in cells; host or cells: human platelets
T1 sequence (P21731 1-343): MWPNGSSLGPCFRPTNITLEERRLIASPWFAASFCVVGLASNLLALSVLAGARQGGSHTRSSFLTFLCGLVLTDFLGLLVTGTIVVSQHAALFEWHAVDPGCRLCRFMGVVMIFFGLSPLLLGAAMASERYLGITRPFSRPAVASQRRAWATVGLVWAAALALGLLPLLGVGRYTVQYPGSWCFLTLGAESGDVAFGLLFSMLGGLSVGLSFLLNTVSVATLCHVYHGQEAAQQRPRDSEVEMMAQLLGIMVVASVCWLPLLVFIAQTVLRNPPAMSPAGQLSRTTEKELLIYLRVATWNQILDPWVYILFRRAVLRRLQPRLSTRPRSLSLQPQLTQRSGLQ
Description: To operate a first selection, the capacity of these compounds to displace in a specific way a tritium ligand, the [^3H]
Cozzi P., Giordani A., Menichincheri M., Pillan A., Pinciroli V., Rossi A., Tonani R., Volpi D., Tamburin M., Ferrario R., Fusar D., Salvati P.,—Agents combining thromboxane receptor antagonism with thromboxane synthase inhibition:[[[2-(1H-imidazol-1-yl)ethylidene]amino]oxy]alkanoic acids.—J. Med. Chem., 1994, 37, 3588-3604.

[2] = target: T2, TPτ thromboxan A2 receptors (Rattus norvegicus, UniProt P34978); experiment: Rat aorta contraction test (relaxation of aorta precontracted by U-46619); settings: tonus induced by U-46619 (0.03 μM); read-out: IC 50: concentration reducing by 50% the Rat Aorta muscular tonus
T2 construct: Two tests on smooth musculature have allowed to confirm the antagonist potency on the TPτ thromboxan A2 receptors; from tissue; host or cells: isolated rat aorta; isolated rat stomach fundus
T2 sequence (P34978 1-341): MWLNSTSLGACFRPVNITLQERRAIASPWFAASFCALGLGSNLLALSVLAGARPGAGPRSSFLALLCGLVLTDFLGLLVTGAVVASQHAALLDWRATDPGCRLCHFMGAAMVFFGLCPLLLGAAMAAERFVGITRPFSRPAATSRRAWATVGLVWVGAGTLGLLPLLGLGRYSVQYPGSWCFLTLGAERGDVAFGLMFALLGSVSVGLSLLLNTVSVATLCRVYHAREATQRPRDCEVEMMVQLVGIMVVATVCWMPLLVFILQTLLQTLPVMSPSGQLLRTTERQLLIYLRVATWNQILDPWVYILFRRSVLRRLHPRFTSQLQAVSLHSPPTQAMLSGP
Description: Two tests on smooth musculature have allowed to confirm the antagonist potency on the TPτ thromboxan A2 receptors. Indeed, the capacity of the selected compounds during the binding to prevent the contraction of the rat fundus induced by I′U-46619 and to relax the rat aorta precontracted by this same stable agonist of the TXA2 have been evaluated;
Test desribed according to:
de Tullio P., Pirotte B., Lebrun P., Fontaine J., Dupont L., Antoine M. H., Ouedraogo R., Khelili S., Maggetto C., Masereel B., Diouf O., Podona T., Delarge J., 3-and -4-substituted 4H-pyrido[4,3-e]-1,2,4-thiadiazine 1,1-dioxides as potassium channels openers: synthesis pharmacological evaluation, and structure-activity relationships.—J. Med. Chem., 1996, 39, 937-948.

[3] = read-out: IC 50: concentration required for replacing 50% of [3H]SQ-29.548 bound to receptors TPα

Row | Structure (SMILES) | IC50 [1] [nM] | inhibition at 1 µM [1] [%] | Affinity: percent of [3H]SQ-29.548 specifically substituted by the examined compound, 10^-6M [1] [%] | also measured
1 | O=C(NC1CCCCC1)NS(=O)(=O)c1cc([N+](=O)[O-])ccc1NC1CCCCCC1 [Compound 22] | 41.7 | 100 | – | inhibition at 0.1 µM [1]: 84.1%; IC50 [2]: 37.6 nM
2 | CCCCCCCCCCNc1ccc([N+](=O)[O-])cc1S(=O)(=O)NC(=O)NC(C)C [Compound 60] | – | – | 79.1 | –
3 | CC(C)NC(=NC#N)NS(=O)(=O)c1cc([N+](=O)[O-])ccc1NC1CCCCCC1 [Compound 8] | – | – | 33.0 | –
4 | CCCCCNC(=O)NS(=O)(=O)c1cc([N+](=O)[O-])ccc1NC1CCCCC1 [Compound 61] | – | 98.6 | – | inhibition at 0.1 µM [1]: 94.8%; IC50 [1, 3]: 1.1 nM
5 | CCCCCCNc1ccc([N+](=O)[O-])cc1S(=O)(=O)NC(=O)NC(C)(C)C [Compound 59] | – | – | 92.2 | –
6 | CC(C)NC(=O)NS(=O)(=O)c1cc([N+](=O)[O-])ccc1NC1CCCCCC1 [Compound 1] | – | – | 93.6 | Affinity: percent of [3H]SQ-29.548 specifically substituted by the examined compound, 10^-7M [1]: 68.0%
7 | CCCCCCCNC(=O)NS(=O)(=O)c1cc([N+](=O)[O-])ccc1NC1CCCCC1 [Compound 84] | 23.9 | 96.9 | – | inhibition at 0.1 µM [1]: 73.7%
8 | CCNC(=S)NS(=O)(=O)c1cc([N+](=O)[O-])ccc1NC1CCCCCC1 [Compound 39] | – | – | 74.5 | –
9 | C=CCNC(=O)NS(=O)(=O)c1cc([N+](=O)[O-])ccc1NC1CCCCC1 [Compound 32] | – | – | 86.7 | Affinity: percent of [3H]SQ-29.548 specifically substituted by the examined compound, 10^-7M [1]: 46.0%
10 | CCNC(=O)NS(=O)(=O)c1cc([N+](=O)[O-])ccc1NC1CCCCCC1 [Compound 28] | – | – | 81.9 | Affinity: percent of [3H]SQ-29.548 specifically substituted by the examined compound, 10^-7M [1]: 39.6%
11 | CC(C)NC(=O)NS(=O)(=O)c1cc([N+](=O)[O-])ccc1N[C@H](C)c1ccccc1 [Compound 79] | – | – | 96.6 | –
12 | C=CCNC(=O)NS(=O)(=O)c1cc([N+](=O)[O-])ccc1Nc1ccccc1 [Compound 31] | – | – | 80.5 | Affinity: percent of [3H]SQ-29.548 specifically substituted by the examined compound, 10^-7M [1]: 42.2%
13 | Cc1cc(C)c(Nc2ccc([N+](=O)[O-])cc2S(=O)(=O)NC(=O)NC(C)C)c(C)c1 [Compound 86] | 1.83 | 98.4 | – | inhibition at 0.1 µM [1]: 94.3%
14 | Cc1cccc(Nc2ccc(C#N)cc2S(=O)(=O)NC(=O)NC(C)C)c1 [Compound 24] | – | – | 73.7 | –
15 | CC(C)NC(=O)NS(=O)(=O)c1cc([N+](=O)[O-])ccc1NC(C)c1ccccc1 (racemic) [Compound 75] | – | – | 93.1 | –
16 | Cc1cccc(Nc2ccc([N+](=O)[O-])cc2S(=O)(=O)NC(=O)NC(C)(C)C)c1C [Compound 73] | 1.2 | 98.3 | – | inhibition at 0.1 µM [1]: 95.6%
17 | Cc1cccc(Nc2ccc([N+](=O)[O-])cc2S(=O)(=O)NC(=O)NC(C)(C)C)c1 [Compound 19] | – | – | 97.8 | Affinity: percent of [3H]SQ-29.548 specifically substituted by the examined compound, 10^-7M [1]: 93.3%; IC50 [1, 3]: 3.96 nM
18 | Cc1ccc(Nc2ccc([N+](=O)[O-])cc2S(=O)(=O)NC(=O)NC(C)C)cc1 [Compound 50] | – | – | 95.7 | Affinity: percent of [3H]SQ-29.548 specifically substituted by the examined compound, 10^-7M [1]: 76.0%
19 | CC(C)NC(=O)NS(=O)(=O)c1cc([N+](=O)[O-])ccc1N1CCOCC1 [Compound 62] | – | – | 3.7 | –
20 | Cc1cccc(Nc2ccc([N+](=O)[O-])cc2S(=O)(=O)NC(=NC#N)NC2CCCCC2)c1 [Compound 6] | – | – | 29.8 | –
21 | CC(C)(C)NC(=O)NS(=O)(=O)c1cc([N+](=O)[O-])ccc1NC1CCCCCCC1 [Compound 26] | 16.9 | 94.3 | – | inhibition at 0.1 µM [1]: 93.3%

Row | Structure (SMILES) | IC50 [1] [nM] | inhibition at 1 µM [1] [%] | Affinity: percent of [3H]SQ-29.548 specifically substituted by the examined compound, 10^-6M [1] [%] | also measured
22 | CCCCNC(=O)NS(=O)(=O)c1cc([N+](=O)[O-])ccc1NC1CCCCC1 [Compound 82] | 4.5 | 98.5 | – | inhibition at 0.1 µM [1]: 98%
23 | CC(C)NC(=S)NS(=O)(=O)c1cc([N+](=O)[O-])ccc1NC1CCCCCC1 [Compound 12] | – | – | 67.2 | –
24 | CCNC(=O)NS(=O)(=O)c1cc([N+](=O)[O-])ccc1NC1CCCCCCC1 [Compound 44] | – | – | 80.2 | Affinity: percent of [3H]SQ-29.548 specifically substituted by the examined compound, 10^-7M [1]: 51.3%
25 | Cc1ccc(Nc2ccc([N+](=O)[O-])cc2S(=O)(=O)NC(=O)NC(C)C)cc1C [Compound 87] | 18.1 | 95.6 | – | inhibition at 0.1 µM [1]: 76%
26 | N#CN=C(NC1CCCCC1)NS(=O)(=O)c1cc([N+](=O)[O-])ccc1NC1CCCC1 [Compound 4] | – | – | 50.0 | –
27 | CC(C)NC(=O)NS(=O)(=O)c1cc([N+](=O)[O-])ccc1NCc1ccccc1 [Compound 21] | – | – | 92.2 | Affinity: percent of [3H]SQ-29.548 specifically substituted by the examined compound, 10^-7M [1]: 44.2%
28 | CC(C)NC(=O)NS(=O)(=O)c1cc([N+](=O)[O-])ccc1Nc1cccc(C(=O)O)c1 [Compound 53] | – | – | 36.5 | –
29 | CCNC(=O)NS(=O)(=O)c1cc([N+](=O)[O-])ccc1NC1CCCCC1 [Compound 27] | – | – | 79.6 | –
30 | CCCCCCCCNC(=O)NS(=O)(=O)c1cc([N+](=O)[O-])ccc1NC1CCCCC1 [Compound 85] | 107 | 92.9 | – | inhibition at 0.1 µM [1]: 42.5%
31 | CCCCCNC(=O)NS(=O)(=O)c1cc([N+](=O)[O-])ccc1Nc1cccc(C)c1 [Compound 96] | 43.9 | 92.3 | – | –
32 | CC(C)NC(=O)NS(=O)(=O)c1cc([N+](=O)[O-])ccc1NC1CCCCC1 [Compound 13] | – | – | 97.7 | Affinity: percent of [3H]SQ-29.548 specifically substituted by the examined compound, 10^-7M [1]: 60.3%
33 | CC(Nc1ccc([N+](=O)[O-])cc1S(=O)(=O)NC(=O)NC(C)(C)C)c1ccccc1 (racemic) [Compound 76] | 3.5 | 97.6 | – | inhibition at 0.1 µM [1]: 93.5%
34 | CCCCCNC(=O)NS(=O)(=O)c1cc([N+](=O)[O-])ccc1Nc1ccccc1C [Compound 94] | – | – | 98.4 | IC50 [1, 3]: 2.82 nM
35 | CCCNc1ccc([N+](=O)[O-])cc1S(=O)(=O)NC(=O)NC(C)C [Compound 20] | – | – | 1.6 | –
36 | CC(C)NC(=O)NS(=O)(=O)c1cc([N+](=O)[O-])ccc1NC1CCCC1 [Compound 2] | – | – | 67.7 | –
37 | CC(C)NC(=NC#N)NS(=O)(=O)c1cc([N+](=O)[O-])ccc1NC1CCCCCCC1 [Compound 9] | – | – | 15.4 | –
38 | CCCCCCNC(=O)NS(=O)(=O)c1cc([N+](=O)[O-])ccc1NC1CCCCC1 [Compound 83] | 4.5 | 98.5 | – | inhibition at 0.1 µM [1]: 92.7%
39 | CCCCCNC(=O)NS(=O)(=O)c1cc([N+](=O)[O-])ccc1Nc1ccc(C)cc1 [Compound 95] | 1.45 | 98.5 | – | –
40 | CC(C)NC(=S)NS(=O)(=O)c1cc([N+](=O)[O-])ccc1NC1CCCCCCC1 [Compound 15] | – | – | 81.0 | Affinity: percent of [3H]SQ-29.548 specifically substituted by the examined compound, 10^-7M [1]: 16.6%
41 | Cc1ccc(C)c(Nc2ccc([N+](=O)[O-])cc2S(=O)(=O)NC(=O)NC(C)C)c1 [Compound 89] | 11.5 | 96.6 | – | inhibition at 0.1 µM [1]: 83.5%
